Earlier results on one compound are cited in patent US20210319872A1, “DRUG AND DEVICE COMBINATION PRODUCTS WITH IMPROVED SAFETY AND EFFICACY PROFILES” (priority 2016, published 2021).

The test system of data set [1] is subjects. The following applies: 16 subjects after 15-mg dose, pilot and main studies, FIG. 31 B.
For data set [2] the following is noted: in vivo.

Take `COc1ccc2c3c1O[C@H]1C(=O)CC[C@@]4(O)[C@@H](C2)N(C)CC[C@]314` [oxycodone, reference compound]: in data set [1], the “individual time course of pupil diameter” value is “does not move into “pinpoint pupils”, overdose, or mydriasis”. In data set [2], the Abdominal pain result is recorded as “Gastrointestinal: Abdominal pain (up to 5%), Constipation (Adults,”; the Chest pain entry was “Cardiovascular: Cardiac arrest, Chest pain (less than 1%), Heart”; the Fever entry is listed as “Other: Fever (Adults, up to 5%; pediatrics, 11%)”; the Headache entry is on record as “(Adults, 3% or greater; pediatrics, 14%), Somnolence (controlled-”. Further, in data set [2], the Heart failure result was “failure (less than 3%), Hypotension (less than 3%), Shock, ST”; the Hypersensitivity reaction entry is on record as “Immunologic: Hypersensitivity reaction (less than 3%)”; the Hypotension result is “failure (less than 3%), Hypotension (less than 3%), Shock, ST”; the Opioid withdrawal entry was “Opioid withdrawal (1% to 5%)”. Further, in data set [2], the ST segment depression entry is “segment depression (less than 1%), Syncope (less than 1%)”; the “Serious side effect, Gastrointestinal” value is “Gastrointestinal: Bowel obstruction, Diverticulitis, Exacerbation”; the “Serious side effect, Other” value is “Other: Drug withdrawal syndrome in neonate of dependent mother,”; the “Serious side effect, Respiratory” value was “Respiratory: Respiratory depression”. Further, in data set [2], the Somnolence entry is on record as “release, 23%; immediate-release, 3% or greater)”; the Sweating entry is “(controlled-release, 5%; immediate-release, less than 3%)”; the Syncope result is on record as “segment depression (less than 1%), Syncope (less than 1%)”.
